This is an account of results in paper PMC7217877, “N-AS-triggered SPMs are direct regulators of microglia in a model of Alzheimer’s disease” (Nature Communications, 2020).

One assay has as its system APP/PS1 mice. The assay can be described thus: fluorescent bead phagocytosis assay in live brain slices (Fig 5b). The following applies: APP/PS1 + N-AS, individual values. In kind it is in vivo, mouse. As to the method:
Transgenic mouse lines over-expressing the hAPP695swe (APP) and presenilin-1M146V (PS1) mutations were originated from GlaxoSmithKline (Harlow, UK)[32] and maintained as described previously. We purchased 5×FAD mice from Jackson Labs (Stock number. 34840-JAX). Because APP/PS1 and 5xFAD mice show sex differences in disease progression, we used only male mice. To examine possible therapeutic effect of N-AS and aspirin in APP/PS1 mice, the N-AS (30 mg kg^−1, Sigma-Aldrich, 01912) was injected daily s.c. for 8 weeks to 7-months-old APP/PS1 mice until the age of 9 months, and aspirin (2 mg kg^−1, Sigma-Aldrich, A5376)[33] was administrated orally to 7-months-old APP/PS1 mice for 8 weeks. Also, to confirm possible therapeutic efficacy of N-AS in 5×FAD, the N-AS (30 mg kg^−1, Sigma-Aldrich, 01912) was injected daily s.c. for 4 weeks to 3-months-old 5×FAD mice until the age of 4 months. Block randomization method was used to allocate the animals to experimental groups. To eliminate the bias, we were blinded in experimental progress such as data collection and data analysis. […]
The phagocytic activity of adult microglia in the cortex of live brain slices was analyzed as following protocol. […] The sections were analyzed with a laser-scanning confocal microscope (FV3000; Olympus). MetaMorph software (Molecular Devices) was used to quantification.

The target in assay [1] is T1, COX2 of WT and APP/PS1 mice (Mus musculus, UniProt Q05769).
T1 construct: from tissue; host or cells: microglia and neurons isolated from brain of 9-months-old WT and APP/PS1 mice
T1 sequence (Q05769 18-604): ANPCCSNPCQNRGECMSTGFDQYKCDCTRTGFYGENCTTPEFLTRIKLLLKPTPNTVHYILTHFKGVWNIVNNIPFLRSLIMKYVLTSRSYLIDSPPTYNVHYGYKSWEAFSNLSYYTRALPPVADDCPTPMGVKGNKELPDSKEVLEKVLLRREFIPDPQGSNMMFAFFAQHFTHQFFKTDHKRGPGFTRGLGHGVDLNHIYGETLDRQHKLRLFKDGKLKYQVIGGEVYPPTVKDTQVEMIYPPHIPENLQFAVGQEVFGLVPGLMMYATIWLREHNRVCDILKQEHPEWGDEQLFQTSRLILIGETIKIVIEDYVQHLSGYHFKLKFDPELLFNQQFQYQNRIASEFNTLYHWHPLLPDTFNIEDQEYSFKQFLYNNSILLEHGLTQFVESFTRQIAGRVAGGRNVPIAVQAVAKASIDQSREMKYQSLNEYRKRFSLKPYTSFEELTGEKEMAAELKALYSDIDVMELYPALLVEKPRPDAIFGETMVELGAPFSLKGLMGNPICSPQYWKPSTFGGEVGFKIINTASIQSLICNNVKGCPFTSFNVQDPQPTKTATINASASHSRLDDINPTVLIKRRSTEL
The assay can be described thus: in vivo COX2 acetylation in microglia and neuron after oral [14C] N-AS (Supplementary Fig 4d). Here is the method: Acetylation assays were performed according to previously described procedures with minor modifications. […] To confirm the N-AS-mediated COX2 acetylation, 10 μg COX2 (WT or mutants) was used incubated with [^14C] N-AS (2 μCi, ARC UK Ltd, ARC-1024) at 37 °C for 2 h. [^14C] aspirin (2 μCi, ARC UK Ltd, ARC-0473) was conducted as the positive control. The reactions were terminated by placing the reaction tubes in ice for 5 min. To evaluate in vivo neuronal and microglial COX2 acetylation, 10 μCi [^14C] N-AS was orally administrated to 9-months-old WT and APP/PS1 mice. After 1 h, neuron and microglia were isolated and sonicated in culture media. To immunoprecipitate acetylated COX2, the sample was incubated with COX2 antibody (Abcam, ab15191) at 4 °C for 24 h and precipitated by adding 50 μl of protein-A sepharose (GE Healthcare). Acetylated COX2 proteins bound to the beads were analyzed using a Tri-Carb 3110TR liquid scintillation counter (Perkin-Elmer).

Molecules are shown by their SMILES. Where “and” joins values, the source holds several entries; their conditions need not be identical. Equal values may be shown once.

Regarding `CCCCCCCCCCCCC/C=C/[C@@H](O)[C@H](CO)NC(C)=O` [N-AS, N-((2S,3R,E)-1,3-Dihydroxyoctadec-4-en-2-yl)acetamide], the “number of microglial phagocytes normalized to the total number of microglia” value with APP/PS1 mice is 0.002363 and 0.002382 and 0.001493 and 0.001786 and 0.001435. The “in vivo COX2 acetylation after oral [14C] N-AS (sFig 4d)” value in assay [1] (Microglia, APP/PS1 mice, relative to WT = 100, listed as [14C] N-AS) is 223.529 and 255.556 and 247.368 and 238.095 and 191.304 and 233.333; in assay [1] (Microglia, WT mice (set to 100)) it was 100; in assay [1] (Neuron, APP/PS1 mice, relative to WT = 100, listed as [14C] N-AS), 104 and 95.8333 and 96.1539 and 114.286 and 112.5; in assay [1] (Neuron, WT mice (set to 100)), 100. For the same compound, in assay [1] (oral [14C] N-AS, APP/PS1 vs WT microglia), the “[14C] radioreactivity of COX2 from microglia” value was “more avidly bound to and acetylated COX2 of APP/PS1 microglia”. For the same compound, the “[14C] radioreactivity of COX2 from neurons” value in assay [1] (oral [14C] N-AS, APP/PS1 vs WT neurons) was “no significant differences were observed in neurons”.
